In the assay the test system is PDE4 enzyme of human origin. The assay can be described thus: PDE4-inhibiting activity on an enzyme preparation obtained from the U937 cell line. In kind it is biochemical. How it is done: In the case of the PDE4 enzymes, this value is compared with that of rolipram, a specific PDE4 inhibitor. […] Measurement of the enzyme activity of the different types of PDE, and especially of the PDE4 enzymes, is then carried out according to a method adapted from W. J. Thompson, ibidem.
As for `COC(=O)[C@H](CCCCNC(=O)OC(C)(C)C)NC(=O)CCC(=O)OCc1nc2ccccc2c(=O)n1C1N=C(c2ccccc2)c2cc(C)cc3c2N(CC3)C1=O` (some centres unmarked) [Example 17G, Methyl 6-t-butoxycarbonylamino-2-{3-[3-(9-methyl-4-oxo-1-phenyl-3,4,6,7-tetrahydro-[1,4]diazepino[6,7,1-hi]indol-3-yl)-4-oxo-3,4-dihydroquinazolin-2-ylmethoxycarbonyl]propionylamino}hexanoate], the IC50 was 516 nM.

In turn, `CCOC(=O)CCc1nc2ccccc2c(=O)n1C1N=C(c2ccccc2)c2cc(C)cc3c2N(CC3)C1=O` (centres unmarked) [Example 17H, Ethyl 3-[3-(9-methyl 4oxo-1-phenyl-3,4,6,7-tetrahydro[1,4]diazepino[6,7,1-hi]indol-3-yl)-4-oxo-3,4-dihydroquinazolin-2-yl]propanoate] had an IC50 of 184 nM.

The compound `Cc1cc2c3c(c1)C(c1ccccc1)=NC(n1cnc4ccccc4c1=O)C(=O)N3CC2` (centres unmarked) [Example 18, 3(9-Methyl-3-oxo-4H-quinazolin-3-yl)-1-phenyl-6,7-dihydro-3H-[1,4]diazepino[6,7,1-hi]indol-4one] registered an IC50 of 823 nM.

`Cc1cc2c3c(c1)C(c1ccccc1)=N[C@@H](n1c(C)nc4cnccc4c1=O)C(=O)N3CC2` [Example 19, (3S)-3-(2-Methyl-4-oxo-4H-pyrido[3,4-d]-pyrimidin-3-yl)-9-methyl-1-phenyl-6,7-dihydro-3H-[1,4]diazepino[6,7,1-hi]indol-1-one] displayed an IC50 of 193 nM.

Compound `Cc1ccc2nc(C)n(C3N=C(c4ccccc4)c4cc([N+](=O)[O-])cc5c4N(CC5)C3=O)c(=O)c2c1` (centres unmarked) [Example 22, 3-(2,6-Dimethyl-4-oxo-4H-quinazolin-3-yl)-9-nitro-1-phenyl-6,7-dihydro-3H-[1,4]diazepino-[6,7,1-hi]indol-4-one] showed an IC50 of 1730 nM.

Regarding `Cc1ccc2c(=O)n(C3N=C(c4ccccc4)c4cc([N+](=O)[O-])cc5c4N(CC5)C3=O)c(C)nc2c1` (centres unmarked) [Example 23, 3-(2,7-Dimethyl-4-oxo-4H-quinazolin-3-yl)-9-nitro-1-phenyl-6,7-dihydro-3H-[1,4]diazepino-[6,7,1-hi]indol-4-one], the IC50 turned out to be 497 nM.

`Cc1cccc2c(=O)n(C3N=C(c4ccccc4)c4cc([N+](=O)[O-])cc5c4N(CC5)C3=O)c(C)nc12` (centres unmarked) [Example 24, 3-(2,8-Dimethyl-4-oxo-4H-quinazolin-3-yl)-9-nitro-1-phenyl-6,7-dihydro-3H-[1,4]diazepino-[6,7,1-hi]indol-4-one] registered an IC50 of 30600 nM.

The compound `Cc1cc(C)c2nc(C)n(C3N=C(c4ccccc4)c4cc([N+](=O)[O-])cc5c4N(CC5)C3=O)c(=O)c2c1` (centres unmarked) [Example 25, 3(2,6,8-Trimethyl-4-oxo-4H-quinazolin-3-yl)-9-nitro-1-phenyl-6,7-dihydro-3H-[1,4]diazepino[6,7,1-hi]indol-4-one] showed an IC50 of more than 100000 nM.

`Cc1cc(Br)c2nc(C)n(C3N=C(c4ccccc4)c4cc([N+](=O)[O-])cc5c4N(CC5)C3=O)c(=O)c2c1` (centres unmarked) [Example 26, 3-(8-Bromo-2,6-dimethyl-4-oxo-4H-quinazolin-3-yl)-9-nitro-1-phenyl-6,7-dihydro-3H-[1,4]diazepino-[6,7,1-hi]indol-4-one] came in with an IC50 of 90600 nM.

The compound `Cc1nc2ccccc2c(=O)n1[C@@H]1N=C(c2ccccc2)c2cc(N)cc3c2N(CC3)C1=O` [Example 28, (3S)-9-Amino-3-(2-methyl-4oxo-4H-quinazolin-3-yl)-1-phenyl-6,7-dihydro-3H-[1,4]diazepino[6,7,1-hi]indol-4-one] registered an IC50 of 5 nM.

Turning to `COC(=O)c1ccc2c(=O)n(C3N=C(c4ccccc4)c4cc(N)cc5c4N(CC5)C3=O)c(C)nc2c1` (centres unmarked) [Example 28A, Methyl 3-(9-amino-4-oxo-1-phenyl-3,4,6,7-tetrahydro-[1,4]diazepino[6,7,1-hi]indol-3-yl)-2-methyl-4-oxo-3,4-dihydroquinazoline-7-carboxylate], the IC50 amounted to 5 nM.

`COC(=O)c1ccc2c(=O)n(C3N=C(c4ccccc4)c4cc(N)cc5c4N(CC5)C3=O)c(C)nc2c1` (centres unmarked) [Example 28B] returned an IC50 of 3 nM.

As to `COC(=O)c1ccc2c(=O)n(C3N=C(c4ccccc4)c4cc(N)cc5c4N(CC5)C3=O)c(C)nc2c1` (centres unmarked) [Example 28C], the IC50 is 70 nM.

`Cc1nc2cc(C(=O)O)ccc2c(=O)n1C1N=C(c2ccccc2)c2cc(N)cc3c2N(CC3)C1=O` (centres unmarked) [Example 28D, 3-(9-Amino-4oxo-1-phenyl-3,4,6,7-tetrahydro[1,4]diazepino[6,7,1-hi]indol-3-yl)-2-methyl-4-oxo-3,4-dihydroquinazoline-7-carboxylic acid] came in with an IC50 of 9 nM.

In the case of `Cc1nc2ccccc2c(=O)n1C1N=C(c2ccccc2)c2cc(N)cc3c2N(CC3)C1=O` (centres unmarked) [Example 29, 9-Amino-3-(2-methyl-4-oxo-4H-quinazolin-3-yl)-1-phenyl-6,7-dihydro-3H-[1,4]diazepino[6,7,1-hi]indol-4-one], the IC50 worked out at 13 nM.

The compound `Cc1cccc2nc(C)n(C3N=C(c4ccccc4)c4cc(N)cc5c4N(CC5)C3=O)c(=O)c12` (centres unmarked) [Example 30, 9-Amino-3-(2,5-dimethyl-4-oxo-4H-quinazolin-3-yl)-1-phenyl-6,7-dihydro-3H-[1,4]diazepino[6,7,1-hi]indol-4-one] had an IC50 of 8 nM.

As to `Cc1ccc2nc(C)n(C3N=C(c4ccccc4)c4cc(N)cc5c4N(CC5)C3=O)c(=O)c2c1` (centres unmarked) [Example 31, 9-Amino-3-(2,6dimethyl-4-oxo-4H-quinazolin-^3-yl)-1-phenyl-6,7-dihydro-3H-[1,4]diazepino[6,7,1-hi]indol-4-one], the midpoint of inhibition, the IC50, lay at 87 nM.

For the compound `Cc1cccc2c(=O)n(C3N=C(c4ccccc4)c4cc(N)cc5c4N(CC5)C3=O)c(C)nc12` (centres unmarked) [Example 32, 9-Amino-3-(2,8-dimethyl-4-oxo-4H-quinazolin-3-yl)-l1-phenyl-6,7-dihydro-3H-[1,4]diazepino[6,7,1-hi]indole-4-one], the IC50 turned out to be 55 nM.

`Cc1cc(C)c2nc(C)n(C3N=C(c4ccccc4)c4cc(N)cc5c4N(CC5)C3=O)c(=O)c2c1` (centres unmarked) [Example 33, 9-Amino-3-(2,6,8-trimethyl-4-oxo-4H-quinazolin-3-yl)-1-phenyl-6,7-dihydro-3H-[1,4]diazepino[6,7,1-hi]indol-4-one]: half-maximal inhibition (IC50) was put at 155 nM.

In the case of `Cc1nc2cnccc2c(=O)n1C1N=C(c2ccccc2)c2cc(N)cc3c2N(CC3)C1=O` (centres unmarked) [Example 34, 9-Amino-3-(2-methyl-4-oxo-4H-pyrido[3,4-d]pyrimidin-3-yl)-1-phenyl-6,7-dihydro-3H-[1,4]diazepino[6,7,1-hi]indol-4-one], the IC50 was found to be 42 nM.

Regarding `Cc1nc2cccc(Cl)c2c(=O)n1C1N=C(c2ccccc2)c2cc(N)cc3c2N(CC3)C1=O` (centres unmarked) [Example 34B, 9-Amino-3-(5-chloro-2-methyl-4-oxo-4H-quinazolin-3-yl)-1-phenyl-6,7-dihydro-3H-[1,4]diazepino[6,7,1-hi]indol-4-one], half-maximal inhibition (IC50) was put at 3 nM.

In turn, `Cc1cc2c3c(c1)C(c1ccccc1)=NC(n1c(C)nc4cc(C(=O)N[C@H](C(=O)O)C(C)C)ccc4c1=O)C(=O)N3CC2` (some centres unmarked) [Example 35, N-(2-methyl-3-(9-methyl-4-oxo-1-phenyl-3,4,6,7-tetrahydro[1,4]diazepino[6,7,1-hi]indol-3-yl)-4-oxo-3,4-dihydroquinazoline-7-carbonyl)valine] gave an IC50 of 106 nM.

The compound `Cc1cc2c3c(c1)C(c1ccccc1)=NC(n1c(C)nc4cc(C(=O)N[C@@H](Cc5ccc(O)cc5)C(=O)O)ccc4c1=O)C(=O)N3CC2` (some centres unmarked) [Example 35A, N-(2-Methyl-3-(9-methyl-4-oxo-1-phenyl-3,4,6,7-tetrahydro[1,4]diazepino[6,7,1-hi]indol-3-yl)-4-oxo-3,4-dihydroquinazoline-7-carboxyl)tyrosine] returned an IC50 of 88 nM.

In the case of `Cc1cc2c3c(c1)C(c1ccccc1)=NC(n1c(C)nc4cc(C(=O)N[C@@H](C)C(=O)O)ccc4c1=O)C(=O)N3CC2` (some centres unmarked) [Example 35B], the IC50 stood at 190 nM.

As to `Cc1cc2c3c(c1)C(c1ccccc1)=NC(n1c(C)nc4cc(C(=O)N[C@@H](Cc5ccccc5)C(=O)O)ccc4c1=O)C(=O)N3CC2` (some centres unmarked) [Example 35C, N-(2-Methyl-3-(9-methyl-4-oxo-1-phenyl-3,4,6,7-tetrahydrol[1,4]diazepino[6,7,1-hi]indol-3-yl)-4-oxo-3,4-dihydroquinazoline-7-carboxyl)phenylalanine], the IC50 was 111 nM.

Regarding `Cc1cc2c3c(c1)C(c1ccccc1)=NC(n1c(C)nc4cc(C(=O)NCC(=O)O)ccc4c1=O)C(=O)N3CC2` (centres unmarked) [Example 35D, N-(2-Methyl-3-(9-methyl-4-oxo-1-phenyl-3,4,6,7-tetrahydro[1,4]diazepino[6,7,1-hi]indol-3-yl)-4-oxo-3,4-dihydroquinazoline-7-carboxyl)glycine], 65 nM corresponded to half-maximal inhibition (IC50).

Consider `Cc1cc2c3c(c1)C(c1ccccc1)=NC(n1c(C)nc4cc(C(=O)N[C@@H](CC(C)C)C(=O)O)ccc4c1=O)C(=O)N3CC2` (some centres unmarked) [Example 35E, N-(2-Methyl-3-(9-methyl-4-oxo-1-phenyl-3,4,6,7-tetrahydro[1,4]diazepino[6,7,1-hi]indol-3-yl)-4-oxo-3,4-dihydroquinazoline-7-carboxyl)leucine], for which the IC50 came out at 82 nM.

Compound `Cc1cc2c3c(c1)C(c1ccccc1)=NC(n1c(C)nc4cc(C(=O)N[C@@H](CC(=O)O)C(=O)O)ccc4c1=O)C(=O)N3CC2` (some centres unmarked) [Example 35F, N-(2-Methyl-3-(9-methyl-4-oxo-1-phenyl-3,4,6,7-tetrahydro[1,4]diazepino[6,7,1-hi]indol-3-yl)-4-oxo-3,4-dihydroquinazoline-7-carboxyl)aspartic acid] came in with an IC50 of 547 nM.

In the case of `Cc1cc2c3c(c1)C(c1ccccc1)=NC(n1c(C)nc4cc(C(=O)N5CCC[C@H]5C(=O)O)ccc4c1=O)C(=O)N3CC2` (some centres unmarked) [Example 35G, N-(2-Methyl-3-(9-methyl-4-oxo-1-phenyl-3,4,6,7-tetrahydro[1,4]diazepino[6,7,1-hi]indol-3-yl)-4-oxo-3,4-dihydroquinazoline-7-carboxyl)proline], the concentration for half-maximal inhibition (IC50) turned out to be 291 nM.

One may read the IC50 as the concentration at which inhibition is half-maximal.

Values taken from patent publication US6239130A, “Phosphodiesterase 4-inhibiting diazepinoindolones” (Warner-Lambert Company, priority 1997, dated 2001).
